Some test systems named below: NCI-H522 lung; A549 NSCLC; SW-620 colon; DU-145 prostate; ACHN renal; NCI-H226 lung; EKVX NSCLC.
What all share (assay): NCI anticancer screen, dose series, 48 h

Molecules are shown by their SMILES. Several values for one entry are separate records, joined by “and”; a condition that tells them apart may be missing. Equal values may be shown once.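 Following 48 hours of exposure in 96-well plates, responses at five concentrations were used to interpolate endpoints linearly. Abbreviation: GI50, concentration required for 50% inhibition of growth. At the TGI there is no net growth.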

For `Nc1n[n+]([O-])c2cc([N+](=O)[O-])ccc2[n+]1[O-]`, the TGI in the assay on NCI-H522 lung was 4.25 µM; in the assay with A549 NSCLC it was 44.6 µM; in the assay on SW-620 colon, > 100 µM; with DU-145 prostate, 31.7 µM; in the assay with ACHN renal, 14.4 µM; in the assay with NCI-H226 lung, 30.7 µM.
Take `N#CCc1c(F)c(F)c(F)c(F)c1F`: the TGI in the assay on EKVX NSCLC, in the assay with NCI-H522 lung, in the assay on A549 NSCLC, with SW-620 colon, in the assay on DU-145 prostate and with ACHN renal was > 100 µM each time. In addition, the TGI in the assay on NCI-H226 lung was > 100 µM.
Turning to `Nc1nc(=O)n(C2CC(O)C(CO)O2)cc1F` (stereo not drawn), the TGI in the assay on EKVX NSCLC, in the assay on NCI-H522 lung, in the assay with A549 NSCLC, with SW-620 colon, with DU-145 prostate and in the assay with ACHN renal was > 100 µM throughout. The TGI in the assay on NCI-H226 lung was > 100 µM. Besides, the GI50 in the assay with A549 NSCLC was 0.0049 µM; in the assay with ACHN renal, 0.00802 µM and < 0.0108 µM.
For `CC1(C)OB(c2ccc(N(CCOS(C)(=O)=O)CCOS(C)(=O)=O)cc2)OC1(C)C`, the GI50 with EKVX NSCLC was 23.4 µM; in the assay on NCI-H522 lung, 14.3 µM; in the assay on A549 NSCLC, 15.1 µM; with SW-620 colon it was 17.1 µM; in the assay with DU-145 prostate it was 23.3 µM; in the assay with ACHN renal it was 3 µM. Also, the GI50 with NCI-H226 lung is 9.02 µM. Further, the TGI with EKVX NSCLC is 58.7 µM; in the assay with NCI-H522 lung, 74.5 µM; with A549 NSCLC, > 85.8 µM; in the assay with SW-620 colon it was > 100 µM; in the assay with DU-145 prostate, 55.7 µM; in the assay with ACHN renal it was 14.2 µM. Also, the TGI in the assay with NCI-H226 lung is 33.6 µM.
Consider `N#Cc1ncc(C(Cl)Cl)nc1Cl`, for which the TGI with EKVX NSCLC is 3.27 µM; with NCI-H522 lung, 1.74 µM; in the assay on A549 NSCLC it was > 10 µM; in the assay on SW-620 colon, 5.31 µM; in the assay with DU-145 prostate, > 10 µM; in the assay with ACHN renal it was 4.32 µM. In addition, the TGI with NCI-H226 lung was > 10 µM.
As for `Cc1nnc(C[C@@H]2C=C(c3ccc(Cl)cc3)c3ccccc3-n3c(C)nnc32)o1`, the GI50 was 6.01 µM in the assay on EKVX NSCLC; 0.578 µM in the assay with NCI-H522 lung; 2.61 µM in the assay with A549 NSCLC; 12 µM in the assay with SW-620 colon; 17.6 µM in the assay with DU-145 prostate; 1.25 µM in the assay on ACHN renal. The GI50 with NCI-H226 lung is 12.6 µM. In addition, the TGI is > 100 µM with EKVX NSCLC; 32.4 µM with NCI-H522 lung; > 82.2 µM in the assay on A549 NSCLC; 68.7 µM in the assay on SW-620 colon; > 100 µM in the assay on DU-145 prostate; > 100 µM with ACHN renal. In the assay on NCI-H226 lung, the TGI is > 100 µM.
Consider `COC(=O)c1cc(-c2ccc3ccccc3c2)[nH]c(=O)c1C#N`, for which the TGI with EKVX NSCLC, in the assay with NCI-H522 lung, with A549 NSCLC, in the assay on SW-620 colon, in the assay with DU-145 prostate and with ACHN renal was > 100 µM each time. Also, in the assay on NCI-H226 lung, the TGI is > 100 µM.
On to `CC/C=C\C[C@H]1C/C=C2/C(=O)C=C[C@H]2C/C=C\CCCC(=O)O1`, for which the GI50 is 4.89 µM in the assay on EKVX NSCLC; 1.98 µM in the assay with NCI-H522 lung; 2.66 µM with A549 NSCLC; 2.58 µM in the assay with SW-620 colon; 1.9 µM in the assay with DU-145 prostate; 1.39 µM in the assay on ACHN renal. For the same molecule, the GI50 in the assay on NCI-H226 lung was 3.4 µM. The TGI stood at 15.7 µM with EKVX NSCLC; 7.21 µM in the assay with NCI-H522 lung; 10.3 µM with A549 NSCLC; 10.4 µM in the assay with SW-620 colon; 7.39 µM in the assay with DU-145 prostate; 3.97 µM in the assay on ACHN renal. In the assay on NCI-H226 lung, this molecule came in with a TGI of 10.8 µM.
On to `Cc1cc(S(=O)(=O)/N=C(\N)Nc2cccc(O)c2)c(SCc2ccccc2)cc1Cl`, for which the GI50 in the assay on EKVX NSCLC was 12.7 µM; in the assay on NCI-H522 lung, 13.9 µM; in the assay on A549 NSCLC, 14.8 µM; in the assay on SW-620 colon, 29.3 µM; with DU-145 prostate, 24.4 µM; with ACHN renal, 18.2 µM. Moreover, the GI50 in the assay on NCI-H226 lung was 24 µM. Moreover, the TGI in the assay on EKVX NSCLC is 37.2 µM; in the assay on NCI-H522 lung, 41.8 µM; with A549 NSCLC it was > 100 µM; in the assay with SW-620 colon, > 100 µM; with DU-145 prostate, 81.8 µM; in the assay on ACHN renal, 39.4 µM. In addition, the TGI in the assay with NCI-H226 lung came to 62.3 µM.
Consider `Cc1cc(F)c(C(=O)Nc2cccc(-c3nncn3C(C)C)n2)cc1-n1cnc(C2CC2)c1`, for which the GI50 with EKVX NSCLC is 13.1 µM; with NCI-H522 lung, 8.56 µM; with A549 NSCLC, 15.2 µM; in the assay on SW-620 colon, 20.8 µM; in the assay on ACHN renal it was 10.4 µM; in the assay on NCI-H226 lung, 19.5 µM. For the same molecule, the TGI is 52.3 µM with EKVX NSCLC; 44.1 µM in the assay on NCI-H522 lung; 74 µM with A549 NSCLC; > 100 µM with SW-620 colon; > 100 µM with DU-145 prostate; 27.7 µM in the assay on ACHN renal. The same molecule returned a TGI in the assay on NCI-H226 lung of 80.7 µM.
Take `COc1ccc(-c2nn(-c3cccc(Cl)c3)cc2/C=C2\NC(=S)N(c3ccc(Cl)cc3)C2=O)cc1`: the GI50 in the assay on EKVX NSCLC was 4.32 µM; with NCI-H522 lung, 1.98 µM; with A549 NSCLC, 3.35 µM; with SW-620 colon it was 8.51 µM; in the assay on DU-145 prostate, 8.75 µM; with ACHN renal it was 3.72 µM. Also, the GI50 with NCI-H226 lung was 4.03 µM. The TGI with EKVX NSCLC is 15.8 µM; in the assay with NCI-H522 lung, 6.21 µM; with A549 NSCLC it was 9.73 µM; in the assay with SW-620 colon it was > 25 µM; in the assay on DU-145 prostate, > 25 µM; in the assay with ACHN renal, > 25 µM. This molecule registered a TGI with NCI-H226 lung of 9.36 µM.
As for `CCN(C(=O)N1CCN(c2cc3c(cc2F)c(=O)c(C(=O)O)cn3C2CC2)CC1)c1nc(-c2ccccc2)cs1`, the GI50 was 3.35 µM in the assay on EKVX NSCLC; 2.01 µM in the assay with NCI-H522 lung; 3.11 µM with A549 NSCLC; 3.93 µM with SW-620 colon; 3.31 µM in the assay on DU-145 prostate; 1.69 µM with ACHN renal. In the assay on NCI-H226 lung, the GI50 was 1.84 µM. The TGI in the assay on EKVX NSCLC was > 100 µM; in the assay with NCI-H522 lung, 7.61 µM; in the assay with A549 NSCLC it was > 100 µM; with SW-620 colon, > 100 µM; in the assay with DU-145 prostate it was > 100 µM; in the assay with ACHN renal it was 9.47 µM. The molecule also gave a TGI in the assay on NCI-H226 lung of 3.74 µM.

The values are drawn from PubChem BioAssay (NCI).
